Assay results published in the NIST ThermoML archive (doi:10.1021/je5007696).

Assay: xn = mol fraction of the nth substance listed
Conditions: 100 kPa, Liquid; for viscosity: Concentric cylinders viscometry; for mass density: Vibrating tube method

CCC(C)=O [butanone] + CCCCO
Conditions | mass density [kg/m3] | viscosity [mPa·s]
288.15 K, x1 = 0.0997 | 813.126 | 2.293
288.15 K, x1 = 0.1999 | 812.877 | 1.645
288.15 K, x1 = 0.3003 | 812.583 | 1.257
288.15 K, x1 = 0.4008 | 812.253 | 1.009
288.15 K, x1 = 0.5003 | 811.906 | 0.8332
288.15 K, x1 = 0.6001 | 811.555 | 0.7013
288.15 K, x1 = 0.6992 | 811.203 | 0.5975
288.15 K, x1 = 0.7991 | 810.843 | 0.5248
288.15 K, x1 = 0.899 | 810.477 | 0.4708
288.15 K, x1 = 1 | 810.133 | 0.4306
293.15 K, x1 = 0.0997 | 809.157 | 2.034
293.15 K, x1 = 0.1999 | 808.747 | 1.483
293.15 K, x1 = 0.3003 | 808.3 | 1.147
293.15 K, x1 = 0.4008 | 807.824 | 0.9297
293.15 K, x1 = 0.5003 | 807.337 | 0.7756
293.15 K, x1 = 0.6001 | 806.848 | 0.6603
293.15 K, x1 = 0.6992 | 806.362 | 0.5696
293.15 K, x1 = 0.7991 | 805.875 | 0.4997
293.15 K, x1 = 0.899 | 805.39 | 0.4505
293.15 K, x1 = 1 | 804.926 | 0.4136
298.15 K, x1 = 0.0997 | 805.165 | 1.814
298.15 K, x1 = 0.1999 | 804.592 | 1.343
298.15 K, x1 = 0.3003 | 803.992 | 1.051
298.15 K, x1 = 0.4008 | 803.369 | 0.8588
298.15 K, x1 = 0.5003 | 802.741 | 0.7227
298.15 K, x1 = 0.6001 | 802.114 | 0.6178
298.15 K, x1 = 0.6992 | 801.494 | 0.5358
298.15 K, x1 = 0.7991 | 800.878 | 0.475
298.15 K, x1 = 0.899 | 800.271 | 0.4313
298.15 K, x1 = 1 | 799.695 | 0.3962
303.15 K, x1 = 0.0997 | 801.147 | 1.626
303.15 K, x1 = 0.1999 | 800.407 | 1.221
303.15 K, x1 = 0.3003 | 799.653 | 0.9652
303.15 K, x1 = 0.4008 | 798.884 | 0.7945
303.15 K, x1 = 0.5003 | 798.115 | 0.6753
303.15 K, x1 = 0.6001 | 797.349 | 0.5823
303.15 K, x1 = 0.6992 | 796.597 | 0.5093
303.15 K, x1 = 0.7991 | 795.852 | 0.4521
303.15 K, x1 = 0.899 | 795.126 | 0.4114
303.15 K, x1 = 1 | 794.435 | 0.3793
308.15 K, x1 = 0.0997 | 797.097 | 1.465
308.15 K, x1 = 0.1999 | 796.195 | 1.115
308.15 K, x1 = 0.3003 | 795.288 | 0.8886
308.15 K, x1 = 0.4008 | 794.369 | 0.7364
308.15 K, x1 = 0.5003 | 793.457 | 0.6314
308.15 K, x1 = 0.6001 | 792.551 | 0.5453
308.15 K, x1 = 0.6992 | 791.666 | 0.48
308.15 K, x1 = 0.7991 | 790.793 | 0.4294
308.15 K, x1 = 0.899 | 789.946 | 0.3918
308.15 K, x1 = 1 | 789.142 | 0.3626
313.15 K, x1 = 0.0997 | 793.009 | 1.327
313.15 K, x1 = 0.1999 | 791.945 | 1.022
313.15 K, x1 = 0.3003 | 790.885 | 0.8197
313.15 K, x1 = 0.4008 | 789.819 | 0.6843
313.15 K, x1 = 0.5003 | 788.763 | 0.5907
313.15 K, x1 = 0.6001 | 787.719 | 0.5143
313.15 K, x1 = 0.6992 | 786.701 | 0.4552
313.15 K, x1 = 0.7991 | 785.7 | 0.4073
313.15 K, x1 = 0.899 | 784.731 | 0.3723
313.15 K, x1 = 1 | 783.814 | 0.3461
318.15 K, x1 = 0.0997 | 788.88 | 1.206
318.15 K, x1 = 0.1999 | 787.652 | 0.939
318.15 K, x1 = 0.3003 | 786.442 | 0.7575
318.15 K, x1 = 0.4008 | 785.228 | 0.637
318.15 K, x1 = 0.5003 | 784.03 | 0.5532
318.15 K, x1 = 0.6001 | 782.849 | 0.485
318.15 K, x1 = 0.6992 | 781.696 | 0.43
318.15 K, x1 = 0.7991 | 780.568 | 0.386
318.15 K, x1 = 0.899 | 779.478 | 0.3532
318.15 K, x1 = 1 | 778.451 | 0.3303
323.15 K, x1 = 0.0997 | 784.708 | 1.096
323.15 K, x1 = 0.1999 | 783.318 | 0.8726
323.15 K, x1 = 0.3003 | 781.954 | 0.7156
323.15 K, x1 = 0.4008 | 780.593 | 0.6041
323.15 K, x1 = 0.5003 | 779.253 | 0.5225
323.15 K, x1 = 0.6001 | 777.934 | 0.4597
323.15 K, x1 = 0.6992 | 776.652 | 0.4101
323.15 K, x1 = 0.7991 | 775.398 | 0.369
323.15 K, x1 = 0.899 | 774.188 | 0.3356
323.15 K, x1 = 1 | 773.047 | 0.3168

COC(=O)CCCCC(=O)OC [dimethyl 1,6-hexanedioate] + CCC(C)=O
viscosity [mPa·s]
Conditions | x1 = 0.1002 | x1 = 0.2002 | x1 = 0.3002 | x1 = 0.4004 | x1 = 0.5001 | x1 = 0.5999 | x1 = 0.6998 | x1 = 0.7994 | x1 = 0.8997 | x1 = 1
288.15 K | 0.5707 | 0.7368 | 0.9419 | 1.183 | 1.467 | 1.802 | 2.191 | 2.636 | 3.16 | 3.751
293.15 K | 0.5434 | 0.6952 | 0.8803 | 1.096 | 1.347 | 1.64 | 1.974 | 2.353 | 2.794 | 3.289
298.15 K | 0.5166 | 0.6563 | 0.824 | 1.019 | 1.242 | 1.498 | 1.79 | 2.12 | 2.491 | 2.91
303.15 K | 0.4912 | 0.6199 | 0.7742 | 0.9509 | 1.15 | 1.38 | 1.635 | 1.921 | 2.241 | 2.604
308.15 K | 0.4667 | 0.5865 | 0.7277 | 0.8892 | 1.069 | 1.274 | 1.5 | 1.75 | 2.033 | 2.342
313.15 K | 0.4425 | 0.555 | 0.6853 | 0.8331 | 0.9961 | 1.181 | 1.382 | 1.604 | 1.851 | 2.121
318.15 K | 0.4199 | 0.525 | 0.6465 | 0.7827 | 0.9324 | 1.098 | 1.279 | 1.476 | 1.695 | 1.933
323.15 K | 0.4037 | 0.502 | 0.6165 | 0.7425 | 0.883 | 1.036 | 1.202 | 1.381 | 1.577 | 1.79
